# In PMC11638627 (Current Research in Microbial Sciences, 2024):
# Tested on: chitin deacetylase (CDA)
# Experiment: p-nitroaniline release, absorbance at […] nm
# Assay type: biochemical, Aneurinibacillus aneurinilyticus
# Details: 50 mM phosphate buffer pH 7.4, 37 °C; partially purified enzyme with two bands
smiles,measurement,value
CC(=O)Nc1ccc([N+](=O)[O-])cc1 [p-nitroacetanilide],Km,98.5 µM
